Test results reported in patent publication US20230233545A1, “TREATMENT OF ATRIAL DYSFUNCTION” (MyoKardia, Inc., priority 2020, published 2023).
Marks after values point to notes of the source that are not given here.

How the values were obtained:
[1] = test system: LV (papillary) skinned muscle fibers; test: Myocardial force generation, LV skinned muscle fibers (tension-pCa, stiffness); assay type: biochemical, Yucatan mini-pig; conditions: at 3 μM
Protocol: The ability of Compound I to increase myocardial force generation at a given Ca2+ concentration was evaluated using LA (n=6) and LV (n=6) skinned muscle fibers prepared from three different Yucatan mini-pig hearts. In short, as previously described, 3 hearts were harvested, rinsed and shipped in cold cardioplegia solution (Custodiol® HTK; Essential Pharmaceuticals, LLC, NC, USA). Upon receipt, LV (papillary) and LA muscle fibers were dissected at 4° C. in a high-relaxing solution (100 mM BES, 10 mM EGTA, 6.57 mM MgCl2, 10 mM creatine phosphate, 6.22 mM ATP, 41.89 mM Kprop, 2.5 μM pepstatin, 1 μM leupeptin, 50 μM PMSF, 5 mM NaN3, pH 7.0). Fiber bundles were cut and skinned (in a high-relaxing solution containing 1% Triton X-100), fitted with aluminum foil t-clips, and mounted on a mechanics apparatus (Aurora Scientific Inc., ON, Canada). Sarcomere length was set to 2.0 μm. Steady-state isometric tension and stiffness (via a 3% stretch over 250 ms) were measured at increasing concentrations of Ca^2+ (pCa 8.0 to 4.5, adjusted to maintain 180 mM ionic strength) twice, first in the absence (control, 1% DMSO) and then in the presence of Compound I (3 μM, 1% DMSO). In all cases, tension values were normalized to the control maximum isometric tension (at pCa 4.5). Active and passive stiffness were calculated by measuring the slope of the early (Ca^2+ dependent) and late phases, respectively, of the tension response to the brief 3% stretches. Data are presented as means (SD) in text or as mean±SEM in figures; EC50 values (and 95% CIs) were calculated using a four-parameter-fit model (GraphPad Prism, GraphPad Software Inc., CA, USA).

[2] = test system: patients with stable HFrEF; test: Multiple-ascending dose trial, TTE left atrial parameters; assay type: in vivo, human
Text: This example describes a study to establish the effect on left atrial dimensions and function of single- and multiple-ascending oral doses of Compound I in ambulatory patients with stable heart failure with reduced ejection fraction (HFrEF). Key eligibility criteria included stable HFrEF of ischemic or nonischemic origin, treated with guideline-directed medical therapy (EF initial requirement during Screening was 20 to 45%, and was later changed by amendment to 15 to 35%). Subjects with active ischemia or severe or valvular heart disease were excluded.
The clinical trial enrolled patients who were 18-80 years of age with a clinical diagnosis of stable chronic heart failure with an LV ejection fraction (LVEF) on echocardiography of 45% or less (subsequently amended to ≤35%), treated with guideline-directed medical therapy, and with good quality echocardiogram images. […] Patients with current or recent AF were also excluded. Detailed inclusion and exclusion criteria are shown below.
This was a randomized, parallel-group, DB, placebo-controlled, adaptive design, sequential ascending (oral) multiple-dose study in stable patients with heart failure. Four MAD Cohorts (A, B, C, D) were enrolled (FIG. 7B). An SRC reviewed results from each cohort and determined the dose and confirmed initial sample size for the subsequent cohort. Additionally, the first 3 patients in each cohort had LVEF>25%; the SRC reviewed preliminary safety data from these patients and decided whether to open cohort enrollment to patients with LVEF<25%.
In Cohort A, Compound I 75 mg twice daily (BID) or matching placebo was administered after a 2-hour fast, and food was not allowed for the following 2 hours. In Cohorts B, C and D, patients received Compound I 50, 75 and 100 mg BID, respectively, with food (Table 5).
Patients were admitted to a clinical research unit for 11 days and underwent 3 consecutive study periods: (1) an initial single-blind placebo run-in period of 2 days (Days 1-2); (2) a randomized (1:3) double-blind treatment period in which patients received 7 days of placebo or Compound I, administered orally twice daily (from Day 3 until Day 9); (3) a follow-up period with patients discharged from the unit on D11, and a final follow-up clinic visit conducted on Day 16. During the 11-day confinement, patients were under continuous supervision.
During the study, multiple evaluations were performed that included: serial TTE assessments (11-14 TTEs per patient on Days 1, 2, 3, 4, 7, 9, 10 and 11); PK sampling (PK sample collected concomitantly with every post-randomization echocardiogram); ECGs (on Days 2, 3, 4, 7, 9, 10, 11 and 16); troponin (collected concomitantly with every post-randomization ECG); and safety laboratory assessments. Confined patients underwent continuous telemetry. Holter monitoring was performed in all patients at baseline (Days 1-2) and at the end of double-blind treatment (Days 7-9). Vital signs were collected daily.

[3] = Pharmacokinetics in healthy volunteers; conditions: human, in vivo
[4] = plasma concentrations ≥2000 ng/mL, 'up to', p<0.01

What does the source list for `Cn1cc(S(=O)(=O)[C@@](C)(F)C2CCN(C(=O)Nc3ccon3)CC2)c(C(F)F)n1` [Compound I, (R)-4-(1-((3-(difluoromethyl)-1-methyl-1H-pyrazol-4-yl)sulfonyl)-1-fluoroethyl)-N-(isoxazol-3-yl)piperidine-1-carboxamide]?
passive stiffness, ventricular skinned fibers [1]: without altering passive stiffness; increase in LV tension ([1]; pCa 6.0): 43%; maximal force-generation capability, ventricular skinned fibers ([1]; data not shown): without altering; safety and tolerability of drug dosages and exposures tested ([2]; current studies): safe and are well tolerated; LAminVi, mean change from baseline (placebo-corrected) ([2]; plasma concentration 2000-<3500 ng/mL (medium), SE 0.6, p<0.01): −2.1 mL/m^2; LAEF, mean change from baseline (placebo-corrected) ([2]; plasma concentration 2000-<3500 ng/mL (n = 26, medium), SE 1.3, p<0.05): 3.3%; LAmaxVi, mean change from baseline (placebo-corrected) ([2]; plasma concentration 2000-<3500 ng/mL, SE 0.7): −1.1 mL/m^2; MR jet area/LA area ratio, mean change from baseline (placebo-corrected) ([2]; plasma concentration 2000-<3500 ng/mL, SE 1.3): −0.6%; LAEF, mean change from baseline (placebo-corrected) ([2]; plasma concentration <2000 ng/mL (n = 30), LS mean difference, SE 1.2, baseline 41 (8)): 2.1%; LAminVi, mean change from baseline (placebo-corrected) ([2]; plasma concentration <2000 ng/mL, SE 0.6, baseline 17 (7), p<0.01): −1.8** mL/m^2; LAmaxVi, mean change from baseline (placebo-corrected) ([2]; plasma concentration <2000 ng/mL, SE 0.6, baseline 28 (9)): −1.2 mL/m^2; MR jet area/LA area ratio, mean change from baseline (placebo-corrected) ([2]; plasma concentration <2000 ng/mL, SE 1.2, baseline 8.7 (10.5)): 0.3%; LAFI, mean change from baseline (placebo-corrected) ([2]; plasma concentration <2000 ng/mL, SE 1.5, baseline 26 (13)): 2.6; LAminVi, mean change from baseline (placebo-corrected) ([2]; plasma concentration ≥3500 ng/mL (high), SE 0.7, p<0.01): −2.4 mL/m^2; LAEF, mean change from baseline (placebo-corrected) ([2]; plasma concentration ≥3500 ng/mL (n = 13, high), SE 1.6, p<0.05): 3.6%; LAmaxVi, mean change from baseline (placebo-corrected) ([2]; plasma concentration ≥3500 ng/mL, SE 0.8): −1.3 mL/m^2; MR jet area/LA area ratio, mean change from baseline (placebo-corrected) ([2]; plasma concentration ≥3500 ng/mL, SE 1.6, p<0.05): −4.2* %; decrease in LA minimal volume index compared with placebo [2, 4]: up to −2.4 mL/m2; increase in LA function index compared with placebo [2, 4]: up to 6.1; Tmax [3]: 4 to 6 h; half-life [3]: ~15 h
